Laboratory results: patent US12264185B2, “Stabilized BCL9 peptides for treatment of aberrant Wnt signaling” (WntRx Pharmaceuticals Inc., priority 2015, dated 2025)
Like-named read-outs stand apart in the source and are kept apart here.

Legend:
PI3K/AKT/FOXO = PI3K/AKT/FOXO transcription assay (TREx FOXO3-DBE-bla HeLa cell line); format: cell-based
Text: In these assays, the trifluoroacetic salt form of WX-024 was used.

CT26 cells = assay: cells
Description: CT26 cells were grown in F-bottom plates over 5 days. […] CellTiterGlo (Promega) cell viability assay. […] Doxorubicin is a known inhibitor of cell growth and was included as a control.

B16F10 cells = assay: B16F10 syngeneic model in C57BL/6 mice; format: in vivo
Description: C57BL/6 mice were inoculated with B16F10 cells. Female C57BL/6 mice aged 4-5 weeks were inoculated with B16F10 cells (2×10^5 cells in 0.05 ml per mouse) in the right flank. When the average tumor size of the mice reached 100 mm^3, the mice were divided into two groups (N=6). […] The treatment was intraperitoneally administered daily for 14 consecutive days.
The treatment was intraperitoneally administered daily for 12 consecutive days. At the end of the treatment, the mice were sacrificed and tumor and blood samples were collected in anticoagulation tubes. Single cell separation was performed for each sample and then stained for FACS analysis. For cell surface staining, CD45-PerCP-Cy5, CD4-FITC, CD8-PE-Cy7, and CD25-PE were used. The tumor samples were then stained with either an anti-CD4 antibody or an anti-CD8 antibody to assess the presence of T cells in the tumor samples. The tumor samples were also stained with an anti-CD194 antibody and anti-CD196 antibody to assess the presence of T helper 17 cells in the tumor samples.
The process of constructing WX-039 is described in Example 10. C57BL/6 mice were inoculated with B16F10 cells. […] The treatment was intraperitoneally administered daily for 12 consecutive days. At the end of the treatment, the mice were sacrificed and tumor and blood samples were collected in anticoagulation tubes. Tumor cells collected from the experiment were stained as described above and also with anti-CD205 antibody to assess whether WX compounds are capable of modulating dendritic cells.
The ability of WX-039 to suppress tumor growth was assessed in the animal model described in Example 5.4. Briefly, C57BL/6 mice were inoculated with B16 cells. Female C57BL/6 mice aged 5 weeks were inoculated with B16F10 cells (2×10^5 cells in 0.05 ml per mouse) in the right flank. When the average tumor size of the mice reached 100 mm^3, the mice were divided into two groups (N=3). The first group was administered 60 mg/kg WX-039 while the second group was treated with a vehicle. The treatment was intraperitoneally administered daily for 12 consecutive days.

[1] = Toxicokinetics, 14 days i.p., female balb/c mice; conditions: for half-life: female, balb/c, mouse, plasma, ip
[2] = 20 mg/kg WX-024 or 60 mg/kg WX-039 i.p. daily, 12 days
[3] = IP-10 mg/kg, after the first dosing (day 1)
[4] = IP-15 mg/kg, after the first dosing (day 1)
[5] = IP-20 mg/kg, after the first dosing (day 1)

Compound: CC[C@H](C)[C@@H]1NC(=O)[C@@](C)(NC(=O)[C@H](CCCNC(=N)N)NC(=O)[C@H](CC(C)C)NC(=O)[C@@H](NC(=O)[C@H](CCC(N)=O)NC(=O)[C@H](CC(C)C)NC(C)=O)[C@@H](C)O)CCCC=CCCC[C@@](C)(C(=O)N[C@@H](CC(C)C)C(=O)N[C@@H](Cc2ccc3ccccc3c2)C(N)=O)NC(=O)[C@H](CCCNC(=N)N)NC(=O)[C@H](CCC(N)=O)NC1=O [WX-024, LQTLRXaa1IQRXaa2L]
- IC50 (PI3K/AKT/FOXO; Example 4.5, read-out: IC50, PI3K/AKT/FOXO transcription assay): > 10000 nM
- IC50 (PI3K/AKT/FOXO; TREx FOXO3-DBE-bla HeLa, Insulin stimulation, trifluoroacetic salt form, read-out: IC50 (nM), PI3K/AKT/FOXO3 pathway): > 1000 nM
- IC50 (PI3K/AKT/FOXO; summary, Example 6, read-out: IC50, PI3K/AKT/FOXO3 reporter assay): > 100 nM
- IC50 (CT26 cells): 1750 nM
- T helper 17 cells in tumor (B16F10 cells; [2]): more effective than WX-039
- dendritic cells (CD205+) in tumor (B16F10 cells; [2]): significantly reduced
- CD4+ positive cells in tumor samples (B16F10 cells; 25 mg/kg i.p. daily, 12 days): increased
- CD8+ positive cells in tumor samples (B16F10 cells; 25 mg/kg i.p. daily, 12 days): increased
- tumor growth compared to vehicle (B16F10 cells; 25 mg/kg i.p. daily, 14 days): effectively reduced tumor growth
- AUCINF [1, 3]: 117 µg·h/mL
- AUClast [1, 3]: 114333 ng·h/mL
- Cmax [1, 3]: 11390 ng/mL
- Terminal t1/2 [1, 3]: 4.52 h
- Tmax [1, 3]: 1.50 h
- Cmax ([1]; IP-10 mg/kg, after the last dosing (day 14)): 11360 ng/mL
- AUCINF [1, 4]: 129.1 µg·h/mL
- AUClast [1, 4]: 118,033 hr*ng/mL
- Cmax [1, 4]: 9767 ng/mL
- Terminal t1/2 [1, 4]: 7.59 h
- AUCINF [1, 5]: 175.333 µg·h/mL
- AUClast [1, 5]: 162,333 hr*ng/mL
- Cmax [1, 5]: 12733 ng/mL
- Terminal t1/2 [1, 5]: 6.47 h
- Tmax [1, 5]: 2.67 h
- half-life ([1]; 10 mg/kg): 6.97 h
- half-life ([1]; 15 mg/kg): 4.25 h
- half-life ([1]; 20 mg/kg): 4.55 h
